Measured values as given in patent US4535081A, “Antiallergic and antiulcer 1-oxo-1H-thiazolo[3,2-a]pyrimidine-2-carboxamides and intermediates therefor” (Pfizer Inc., priority 1983, dated 1985).
Where two headings read alike, the source gives them in different places.

Tests used:
[1] = system: IgE (reaginic antiserum) PCA reaction; experiment: Oral activity in PCA test, IgE; assay type: in vivo, rat; conditions: Rattus norvegicus, IgE, oral
Method: (§1) The antiallergy property of the compounds of this invention is evaluated by the passive cutaneous anaphylaxis (PCA) test (Ovary, J. Immun., 81, 355, 1958). In the PCA test, normal animals are injected intradermally (i.d.) with antibodies contained in serum obtained from actively sensitized animals. The animals are then challenged intravenously with antigen mixed with a dye such as Evans' Blue. The increased capillary permeability caused by the antigen-antibody reaction causes the dye to leak from the site of the antibody injection. The test animals are then asphyxiated and the intensity of the reaction determined by measuring the diameter and intensity of the blue coloration on the inner surface of the animals' skin.
The PCA test is a measure of the anti-allergic (especially anti-asthmatic) activity of a compound. Compounds which inhibit a positive PCA test induced by the rat immunochemical counterpart of human immunoglobulin E (IgE), or reagin, are considered to have anti-allergic activity (C. Mota, Ann. N.Y. Acad. Sci., 103, 264 1963). (Reagin is primarily immunoglobulin E [IgE] and is the principal immunoglobulin responsible for allergic asthma, anaphylaxis, hay fever, food sensitivities and certain manifestations of drug sensitivities, although recent evidence ascribes to the IgG class of antibodies a significant role in the mediation of allergic diseases). Such compounds when administered to a sensitized subject, human or animal, prior to the time when the subject comes into contact with antigens or substances to which it is allergic, will prevent the allergic reaction which would otherwise occur. They, therefore, provide a method for the prophylactic treatment of allergy or anaphylactic reactions of a reagin mediated nature.
To put it another way, such compounds block the release of mediators resulting from the antigen-antibody (allergic) reaction as illustrated in the PCA test using rat homocytotropic antibody--a known correlate of human reaginic antibody. Inhibition of reaginic antigen-antibody reactions in rats, the test animal of the PCA test, is regarded as representative of inhibition of human reaginic antigen-antibody reactions which occur during allergic episodes.
The ability of agents to interfere with PCA reactions is measured in male Charles River Wistar rats, 170-210 g. Reaginic antiserum, rich in IgE antibodies, is prepared according to Petillo et al., Int. Arch. Allergy, 44, 309 (1973). Hyperimmune antiserum rich in IgG antibodies to hen egg albumin is prepared according to Orange et al., J. Exptl. Med., 127, 767 (1968). Forty-eight hours prior to antigen challenge, the reaginic antiserum is injected intradermally (i.d.) into the shaved skin of a normal rat's back; 5 hours before challenge the hyperimmune antisera is similarly injected. At a third site 60 mcg. histamine dihydrochloride and 0.5 mcg. serotonin creatinine sulfate are injected i.d. just prior to antigen challenge as a check for antihistaminic, antiserotonin and unspecific types of blockage; the compounds of the instant invention or saline are then administered i.v. and immediately followed by the challenge of 5 mg. egg albumen and 2.5 mg. Evans' Blue dye in saline. In the case of oral administration Evans' Blue dye and egg albumin are given 5 minutes after administration of the drug. Thirty minutes later the animals are asphyxiated using chloroform and the skin of the back removed and reversed for observation. A score is assigned each injection site equal to the product of the diameter of the site in mm. and a grade of 0.1, 0.5, 1, 2, 3 or 4 proportional to intensity of dye coloration. The scores for a given injection site are summed for each group of five animals and compared to the saline treated controls. The difference is expressed as percent blockage due to the compound employed. […]

[2] = system: IgG (hyperimmune antiserum) PCA reaction; experiment: Oral activity in PCA test, IgG; assay type: in vivo; conditions: Rattus norvegicus
Method: as §1
The ability of agents to interfere with PCA reactions is measured in male Charles River Wistar rats, 170-210 g. Reaginic antiserum, rich in IgE antibodies, is prepared according to Petillo et al., Int. Arch. Allergy, 44, 309 (1973). Hyperimmune antiserum rich in IgG antibodies to hen egg albumin is prepared according to Orange et al., J. Exptl. Med., 127, 767 (1968). Forty-eight hours prior to antigen challenge, the reaginic antiserum is injected intradermally (i.d.) into the shaved skin of a normal rat's back; 5 hours before challenge the hyperimmune antisera is similarly injected. At a third site 60 mcg. histamine dihydrochloride and 0.5 mcg. serotonin creatinine sulfate are injected i.d. just prior to antigen challenge as a check for antihistaminic, antiserotonin and unspecific types of blockage; the compounds of the instant invention or saline are then administered i.v. and immediately followed by the challenge of 5 mg. egg albumen and 2.5 mg. Evans' Blue dye in saline. In the case of oral administration Evans' Blue dye and egg albumin are given 5 minutes after administration of the drug. Thirty minutes later the animals are asphyxiated using chloroform and the skin of the back removed and reversed for observation. A score is assigned each injection site equal to the product of the diameter of the site in mm. and a grade of 0.1, 0.5, 1, 2, 3 or 4 proportional to intensity of dye coloration. The scores for a given injection site are summed for each group of five animals and compared to the saline treated controls. The difference is expressed as percent blockage due to the compound employed.
Compounds representative of those of the present invention are tested for antiallergy activity by the above-described procedure and the resulting activities are reported as the degree (%) of protection.

[3] = Table II acids, read-out: Oral Activity (% of Protection) of Acids in the PCA Test, IgE
[4] = Table II acids, read-out: Oral Activity (% of Protection) of Acids in the PCA Test, IgG
[5] = Table I amides, read-out: Oral Activity (% of Protection) in the PCA Test, IgE
[6] = Table I amides, read-out: Oral Activity (% of Protection) in the PCA Test, IgG

SMILES: CCC(C)c1csc2ncc(C(=O)O)c(=O)n12 (centres unmarked) [1-Oxo-1H-7-(2-butyl)thiazolo[3,2-a]pyrimidine-2-carboxylic Acid]
- inhibition in vivo at 30 mg/kg [1, 3]: 1%
- inhibition in vivo at 30 mg/kg [2, 4]: 8%

SMILES: O=C(Nc1nnn[nH]1)c1cnc2sc3c(n2c1=O)CCC3 [Formula I: (CH2)3, N-(5-Tetrazolyl)-1-oxo-1H-cyclopentenothiazolo[3,2-a]pyrimidine-2-carboxamide]
- inhibition in vivo at 1 mg/kg ([1]; 1 mg./kg., read-out: Oral Activity (% of Protection) in the PCA Test, IgE): 46%
- inhibition in vivo at 1 mg/kg ([2]; 1 mg./kg., read-out: Oral Activity (% of Protection) in the PCA Test, IgG): 43%

SMILES: O=C(Nc1nnn[nH]1)c1cnc2sc3c(n2c1=O)CCCCC3 [Formula I: (CH2)5, N-(5-Tetrazolyl)-1-oxo-1H cycloheptenothiazolo[3,2-a]pyrimidine-2-carboxamide]
- inhibition in vivo at 30 mg/kg [1, 5]: 25%
- inhibition in vivo at 30 mg/kg [2, 6]: 38%

SMILES: CCc1sc2ncc(C(=O)Nc3nnn[nH]3)c(=O)n2c1C [Formula I: R1=C2H5, R2=CH3, N-(5-Tetrazolyl)-1-oxo-1H-6-ethyl-7-methylthiazolo[3,2-a]pyrimidine-2-carboxamide]
- inhibition in vivo at 30 mg/kg [1, 5]: 29%
- inhibition in vivo at 30 mg/kg [2, 6]: 28%

SMILES: CCc1c(C)sc2ncc(C(=O)Nc3nnn[nH]3)c(=O)n12 [Formula I: R1=CH3, R2=C2H5, N-(5-Tetrazolyl)-1-oxo-1H-6-methyl-7-ethylthiazolo[3,2-a]pyrimidine-2-carboxamide]
- inhibition in vivo at 30 mg/kg [1, 5]: 75%
- inhibition in vivo at 30 mg/kg [2, 6]: 57%

SMILES: CCc1csc2ncc(C(=O)Nc3nnn[nH]3)c(=O)n12 [Formula I: R1=H, R2=C2H5, N-(5-Tetrazolyl)-1-oxo-1H-7-ethylthiazolo[3,2-a]pyrimidine-2-carboxamide]
- inhibition in vivo at 30 mg/kg [1, 5]: 70%
- inhibition in vivo at 30 mg/kg [2, 6]: 44%

SMILES: CC(C)(C)c1csc2ncc(C(=O)Nc3nnn[nH]3)c(=O)n12 [Formula I: R1=H, R2=C(CH3)3, N-(5-Tetrazolyl)-1-oxo-1H-7-(2-methyl-2-propyl)thiazolo[3,2-a]pyrimidine-2-carboxamide]
- inhibition in vivo at 30 mg/kg [1, 5]: 37%
- inhibition in vivo at 30 mg/kg [2, 6]: 20%

SMILES: CC(C)c1csc2ncc(C(=O)Nc3nnn[nH]3)c(=O)n12 [Formula I: R1=H, R2=CH(CH3)2, N-(5-Tetrazolyl)-1-oxo-1H-7-isopropylthiazolo[3,2-a]pyrimidine-2-carboxamide]
- inhibition in vivo at 30 mg/kg [1, 5]: 72%
- inhibition in vivo at 30 mg/kg [2, 6]: 53%

SMILES: O=C(Nc1nnn[nH]1)c1cnc2sccn2c1=O [Formula I: R1=H, R2=H]
- inhibition in vivo at 30 mg/kg [1, 5]: 50%
- inhibition in vivo at 30 mg/kg [2, 6]: 46%

SMILES: O=C(O)c1cnc2sc3c(n2c1=O)CCC3 [Formula II: (CH2)3, 1-Oxo-1H-cyclopentenothiazolo[3,2-a]pyrimidine-2-carboxylic Acid]
- inhibition in vivo at 30 mg/kg [1, 3]: 0%
- inhibition in vivo at 30 mg/kg [2, 4]: 0%

SMILES: O=C(O)c1cnc2sc3c(n2c1=O)CCCCC3 [Formula II: (CH2)5, 1-Oxo-1H-cycloheptenothiazolo[3,2-a]pyrimidine-2-carboxylic Acid]
- inhibition in vivo at 30 mg/kg [1, 3]: 37%
- inhibition in vivo at 30 mg/kg [2, 4]: 44%

SMILES: O=C(O)c1cnc2sc3c(n2c1=O)CCCCCC3 [Formula II: (CH2)6, 1-Oxo-1H-cyclooctenothiazolo[3,2-a]pyrimidine-2-carboxylic Acid]
- inhibition in vivo at 10 mg/kg ([1]; 10 mg./kg., Table II acids, read-out: Oral Activity (% of Protection) of Acids in the PCA Test, IgE): 36%
- inhibition in vivo at 30 mg/kg [1, 3]: 68%
- inhibition in vivo at 10 mg/kg ([2]; 10 mg./kg., Table II acids, read-out: Oral Activity (% of Protection) of Acids in the PCA Test, IgG): 15%
- inhibition in vivo at 30 mg/kg [2, 4]: 45%

SMILES: CC1(C)CCc2c(sc3ncc(C(=O)O)c(=O)n23)C1 [Formula II: CH2C(CH3)2CH2CH2, 1-Oxo-1H-7,7-dimethylcyclohexenothiazolo[3,2-a]pyrimidine-2-carboxylic Acid]
- inhibition in vivo at 30 mg/kg [1, 3]: 13%
- inhibition in vivo at 30 mg/kg [2, 4]: 6%

SMILES: O=C(O)c1cnc2sc3c(n2c1=O)CCC(c1ccccc1)C3 (centres unmarked) [Formula II: CH2CH(C5H6)CH2CH2, 1-oxo-1H-7-phenylcyclohexenothiazolo[3,2-a]pyrimidine-2-carboxylic Acid]
- inhibition in vivo at 30 mg/kg [1, 3]: 15%
- inhibition in vivo at 30 mg/kg [2, 4]: 5%

SMILES: CC1CCc2c(sc3ncc(C(=O)O)c(=O)n23)C1 (centres unmarked) [Formula II: CH2CH(CH3)CH2CH2, 1-Oxo-1H-7-methylcyclohexenothiazolo[3,2-a]pyrimidine-2-carboxylic Acid]
- inhibition in vivo at 30 mg/kg [1, 3]: 31%
- inhibition in vivo at 30 mg/kg [2, 4]: 21%

SMILES: CCc1sc2ncc(C(=O)O)c(=O)n2c1C [Formula II: R1=C2H5, R2=CH3, 1-Oxo-1H-6-ethyl-7-methylthiazolo[3,2-a]pyrimidine-2-carboxylic Acid]
- inhibition in vivo at 30 mg/kg [1, 3]: 42%
- inhibition in vivo at 30 mg/kg [2, 4]: 24%

SMILES: CCc1c(C)sc2ncc(C(=O)O)c(=O)n12 [Formula II: R1=CH3, R2=C2H5, 1-Oxo-1H-6-methyl-7-ethylthiazolo[3,2-a]pyrimidine-2-carboxylic Acid]
- inhibition in vivo at 30 mg/kg [1, 3]: 0%
- inhibition in vivo at 30 mg/kg [2, 4]: 0%

SMILES: CCc1csc2ncc(C(=O)O)c(=O)n12 [Formula II: R1=H, R2=C2H5, 1-Oxo-1H-7-ethylthiazolo[3,2-a]pyrimidine-2-carboxylic Acid]
- inhibition in vivo at 30 mg/kg [1, 3]: 13%
- inhibition in vivo at 30 mg/kg [2, 4]: 21%

SMILES: CC(C)(C)c1csc2ncc(C(=O)O)c(=O)n12 [Formula II: R1=H, R2=C(CH3)3, 1-Oxo-1H-7-(2-methyl-2-propyl)thiazolo[3,2-a]pyrimidine-2-carboxylic Acid]
- inhibition in vivo at 30 mg/kg [1, 3]: 10%
- inhibition in vivo at 30 mg/kg [2, 4]: 6%

SMILES: CC(C)c1csc2ncc(C(=O)O)c(=O)n12 [Formula II: R1=H, R2=CH(CH3)2, 1-Oxo-1H-7-isopropylthiazolo[3,2-a]pyrimidine-2-carboxylic Acid]
- inhibition in vivo at 30 mg/kg [1, 3]: 0%
- inhibition in vivo at 30 mg/kg [2, 4]: 0%

SMILES: O=C(O)c1cnc2sccn2c1=O [Formula II: R1=H, R2=H]
- inhibition in vivo at 30 mg/kg [1, 3]: 18%
- inhibition in vivo at 30 mg/kg [2, 4]: 7%
